Results published in publication PMC9414862, “In Vitro and In Silico Potential Inhibitory Effects of New Biflavonoids from Ochna rhizomatosa on HIV-1 Integrase and Plasmodium falciparum” (Pharmaceutics, 2022).
Where two headings read alike, the source gives them in different places.

Assays:
[1] = target: T1, HIV-1 integrase (purified recombinant HIV-1 subtype C IN) (Human immunodeficiency virus type 1 group M subtype C, UniProt Q75002); experiment: HIV-1 Integrase strand transfer inhibition assay; assay type: biochemical
T1 construct: Recombinant HIV-1 subtype CIN was assembled on to the pre-processed donor DNA
Method: The HIV-1 Integrase strand transfer inhibition assay was adapted from previously described methods. […] Following incubation at room temperature for 40 min and a stringent wash step, 5 µg/mL purified recombinant HIV-1 subtype CIN in integrase buffer 1 ([…] to ethanol, 50 µg/mL BSA, pH 7.5) was added to individual wells. […] Recombinant HIV-1 subtype CIN was assembled on to the pre-processed donor DNA through incubation for 45 min at room temperature. Strand transfer reaction was initiated through the addition of 10 µM (final concentration) double-stranded FITC-labelled target DNA (5′-[…]/36-FAM/-3′) annealed to (5′-[…]-/36-FAM/-3′) in integrase buffer 2 (same as buffer 1, except 25 µM MnCl2 was replaced with 2.5 µM MgCl2). After an incubation period of 60 min at 37 °C, the plates were washed using PBS containing 0.05% Tween 20 and 0.01% BSA, followed by the addition of peroxidase-conjugated sheep anti-FITC antibody (Thermo Scientific, Waltham, MA, USA) diluted 1:1000 in the same PBS buffer. Finally, the plates were washed and peroxidase substrate (Sure Blue Reserve™, KPL, Gaithersburg, MD, USA) was added to allow for detection at 620 nm using a Synergy MX (BioTek®) plate reader. Absorbance values were converted to % enzyme activity relative to the readings obtained from the control wells (enzyme without inhibitor).

[2] = test system: Plasmodium falciparum strain NF54 (chloroquine-sensitive), erythrocytic stages; experiment: Antiplasmodial 3H-hypoxanthine incorporation assay; assay type: cell-based; details: for IC50: Plasmodium falciparum
Method: The assessment of antiplasmodial activity in vitro was evaluated against the erythrocytic stages of chloroquine-sensitive Plasmodium falciparum strain NF54 using a ^3H-hypoxanthine incorporation assay previously described, of which the […] NF54 strain originated from South Africa, and the standard drug chloroquine was obtained from Sigma-Aldrich (St. Louis, MO, USA). Compounds were dissolved in DMSO at 10 μg/mL and added to parasite cultures incubated in RPMI 1640 medium without hypoxanthine, supplemented with HEPES (5.94 g/L), NaHCO3 (2.1 g/L), neomycin (100 U/mL), Albumax, and washed human red cells A^+ at 2.5% hematocrit (0.3% parasitemia). Serial sample dilutions of […] dilution steps covering a range from 100 to 0.002 μg/mL were prepared. The 96-well plates were incubated in a humidified atmosphere at 37 °C; 4% CO2; 3% O2 and 93% N2. After 48 h, 50 μL of ^3H-hypoxanthine (0.5 μCi) was added to each well.

[3] = chloroquine-sensitive P. falciparum NF54, mean ± SD, '-' in Table 3 = no activity, read-out: NF54: IC50 (antiplasmodial activity)
[4] = chloroquine-sensitive P. falciparum NF54, mean ± SD, '-' in Table 3 = no activity
[5] = mean ± SD; '-' in Table 2 = no inhibition detected; read-out: Assembly IC50 (anti-HIV-1 integrase activity)
[6] = mean ± SD; '-' in Table 2 = no inhibition detected

T1 sequence (Q75002 1152-1439): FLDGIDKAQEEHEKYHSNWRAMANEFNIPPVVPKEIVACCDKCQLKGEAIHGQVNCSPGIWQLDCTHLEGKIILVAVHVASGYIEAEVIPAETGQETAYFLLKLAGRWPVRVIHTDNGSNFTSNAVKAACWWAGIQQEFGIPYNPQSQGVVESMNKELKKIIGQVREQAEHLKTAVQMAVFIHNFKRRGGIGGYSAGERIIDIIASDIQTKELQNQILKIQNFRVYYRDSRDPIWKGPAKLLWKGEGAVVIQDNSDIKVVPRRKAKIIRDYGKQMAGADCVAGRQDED

| SMILES | IC50 ([1]; read-out: Assembly IC50 (anti-HIV-1 integrase activity)) [µM] | IC50 [2, 3] [µM] | NF54: IC50 (antiplasmodial activity) [2, 4] | IC50 ([2]; NF54, read-out: NF54: IC50 (antiplasmodial activity)) [µM] | IC50 [1, 5] [µM] | Assembly IC50 (anti-HIV-1 integrase activity) [1, 6] | IC50 ([1]; read-out: Assembly IC50 (anti-HIV-1 integrase activity); mean ± SD; '-' in Table 2 = no inhibition detected) [µM] |
| --- | --- | --- | --- | --- | --- | --- | --- |
| O=C(c1ccc(O)cc1O)[C@@H](c1coc2cc(O)ccc2c1=O)C(c1ccc(O)cc1)c1ccc(O)cc1 [Compound 1] | 0.047 ± 0.021 | > 190 | no activity | – | – | – | – |
| CCN(CC)CCCC(C)Nc1ccnc2cc(Cl)ccc12 (centres unmarked) [Chloroquine, reference compound] | – | – | – | 0.006 ± 0.002 | – | – | – |
| COc1cc(-c2coc3cc(O)cc(OC)c3c2=O)ccc1O [Compound 7, 4′,7-dihydroxy-3′,5-dimethoxyisoflavone] | – | > 190 | no activity | – | > 20 | – | – |
| COc1ccc(C(c2ccc(O)cc2)[C@@H](C(=O)c2ccc(O)cc2O)c2coc3cc(OC)ccc3c2=O)cc1 (stereo partly drawn) [Compound 3, (R)-3-(1-(2′,4′-dihydroxyphenyl)-3,3-bis(4″-hydroxy-4‴-methoxyphenyl)-1-oxopropan-2-yl)-4 methoxychromenone] | – | 7.86 ± 5.12 | – | – | – | no inhibition detected | > 20 |
| C[C@H]1[C@H](OC(=O)CCC(=O)O)O[C@@H]2O[C@@]3(C)CC[C@H]4[C@H](C)CC[C@@H]1[C@@]24OO3 [Artesumate, reference compound] | – | 0.002 | – | – | – | – | – |
| COc1ccc(C(c2ccc(O)cc2)[C@@H](C(=O)c2ccc(O)cc2O)c2coc3cc(O)ccc3c2=O)cc1 (some centres unmarked) [Compound 4, schweinfurthianone A] | – | 8.2 ± 0.93 | – | – | > 20 | no inhibition detected | – |
| O=C(/C=C/c1ccc(O)cc1)c1c(O)cc(O)c2c(C(=O)c3ccc(O)cc3O)c(-c3ccc(O)cc3)oc12 [Compound 6, calodenine B] | – | > 190 | no activity | – | > 20 | no inhibition detected | – |
| COc1ccc(C(c2ccc(O)cc2)[C@@H](C(=O)c2ccc(OC)cc2O)c2coc3cc(OC)ccc3c2=O)cc1 (some centres unmarked) [Compound 5, shweinfurthianone B] | – | 5.11 ± 13.7 | – | – | > 20 | no inhibition detected | – |
| COc1ccc(C(c2ccc(OC)cc2)[C@@H](C(=O)c2ccc(OC)cc2O)c2coc3cc(OC)ccc3c2=O)cc1 [Compound 2, (R)-3-(1-(2′-hydroxy-4′-methoxyphenyl)-3,3-bis(4″,4‴-dimethoxyphenyl)-1-oxopropan-2-yl)-4-methoxychromenone] | – | 4.6 ± 6.09 | – | – | > 20 | – | – |
